Measurements from PubChem BioAssay (NCI).
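The compound was tested at five concentrations on cells cultured in 96-well plates, with a 48-hour exposure period. At the TGI there is no net growth.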

How the values were obtained:
Test in all cases: inhibition of tumour cell growth, NCI panel, 48 h
MCF7 breast = test system: MCF7 breast
A498 renal = test system: A498 renal
OVCAR-3 ovarian = test system: OVCAR-3 ovarian
PC-3 prostate = test system: PC-3 prostate
K-562 leukemia = test system: K-562 leukemia
IGROV1 ovarian = test system: IGROV1 ovarian
NCI-H23 lung = test system: NCI-H23 lung
HS 578T breast = test system: HS 578T breast
SNB-19 CNS = test system: SNB-19 CNS
LOX IMVI melanoma = test system: LOX IMVI melanoma

| Compound | TGI (MCF7 breast) [µM] | TGI (A498 renal) [µM] | TGI (OVCAR-3 ovarian) [µM] | TGI (PC-3 prostate) [µM] | TGI (K-562 leukemia) [µM] | TGI (IGROV1 ovarian) [µM] | TGI (NCI-H23 lung) [µM] | TGI (HS 578T breast) [µM] | TGI (SNB-19 CNS) [µM] | TGI (LOX IMVI melanoma) [µM] |
| --- | --- | --- | --- | --- | --- | --- | --- | --- | --- | --- |
| Cc1cc2c(c(C(=O)NCC(=O)N[C@@H](C)C(=O)OCc3ccccc3)c1)Oc1c(cc(C)cc1C(=O)NCC(=O)N[C@@H](C)C(=O)OCc1ccccc1)S2 | > 100 | > 100 | > 100 | > 100 | > 100 | > 100 | > 100 | 80.1 | > 100 |  |
| COc1cccc2c1OC1Sc3ccccc3-c3nn(-c4ccccc4)c-2c31 (stereo unspecified) |  | > 100 | > 100 |  | > 100 | > 100 | > 100 |  |  | > 100 |
| O=c1[nH]c(=O)c2ncn(-c3ccc([N+](=O)[O-])cn3)c2[nH]1 | > 100 | > 100 | > 100 | > 100 | > 100 |  | > 100 |  | > 100 | > 100 |
| CC(=O)O[C@H]1C(=O)[C@@]2(C)[C@H]([C@H](OC(=O)c3ccccc3)[C@]3(O)C[C@H](OC(=O)[C@H](O)[C@@H](NC(=O)c4ccccc4)c4ccc5ccccc5c4)C(C)=C1C3(C)C)[C@]1(OC(C)=O)CO[C@@H]1C[C@@H]2O | 0.879 | 6.96 |  | > 50 | 2.05 | > 42.3 | > 45.4 | 0.148 | > 31.8 | 6.59 |
| CCOC(=O)/C=C/C(=O)O/C=C/[N+](=O)[O-] | > 100 | > 100 | > 100 |  |  | > 100 | > 100 | > 100 |  | > 100 |
| Cn1c(-c2ccc(-c3cc(-c4cccs4)c(-c4cccs4)n3C)cc2)cc(-c2cccs2)c1-c1cccs1 | > 100 |  |  | > 100 | > 100 | > 100 |  | > 100 | > 100 |  |
| CCOC(=O)c1[nH]cc(C)c1-c1cccn1-c1ccc(Cl)cc1[N+](=O)[O-] | > 100 | > 100 | 29.5 | 64.9 | 53.3 | 49.9 | > 100 | 51.2 |  | 31.3 |
| COc1ccc2c(c1)Oc1cc(O)ccc1[C@H]2c1ccccc1C(=O)NC(C)c1ccccc1 (stereo partly specified) |  | 30.8 | 29.4 |  | > 100 | 31.5 | 32.5 |  | 33 | 31.6 |
| CC(C)=CC1C(C(=O)Oc2ccccc2C(C)C)C1(C)C (stereo unspecified) | 38 | 37.1 | 34.6 |  | 83.8 | > 100 | 65.4 | > 100 | > 100 | 33.4 |
| COc1cccc2c1C(=O)c1c(O)c3c(c(O)c1C2=O)C[C@@](O)(C(C)=O)CC3S(=O)(=O)O (stereo partly specified) |  | > 100 | > 100 |  | > 100 | > 100 | > 100 |  | > 100 | > 100 |
| O=C1C=C(Nc2ccccc2C(=O)CC(=O)C(=O)Nc2ccc(Cl)cc2)c2ccccc2C1=O |  | > 100 | 9.29 |  | 40.9 | > 88.5 | 29.6 |  | 43.9 | 4.98 |
| CN1CCN(C(=O)CCC(=O)Nc2cc3c(c4ccccc24)-c2ccc4ccccc4c2C3)CC1 | 3.03 | 27.6 | 3.22 | 3.37 |  | 2.74 | 3.47 | 5.81 | 3.93 | 4.04 |
| COc1ccc(-n2c(SC(CN3CCOCC3)CN3CCCC3=O)nc3ccccc3c2=O)cc1 (stereo unspecified) | > 100 | > 100 | > 100 | > 100 | > 100 | > 100 | > 100 | > 100 | > 100 |  |
| Cc1cc2nc3c(C#N)c4c(c(Nc5ccc(F)cc5)n3c2cc1C)CCC4 | > 100 |  | > 100 | > 100 | > 100 | > 100 | > 100 | > 100 | > 100 | > 100 |
| O=C1/C(=C/c2ccc(Cl)cc2)Oc2cc(O)ccc21 | > 100 |  | 96.1 | 89.7 | 38.5 | > 100 | > 100 | 46.6 | 87.4 |  |
| C/C(=N\Nc1nc2cc(Cl)ccc2s1)c1ccccn1 |  | > 22.6 | 7.11 | > 35.2 | > 100 |  | 25.9 | > 100 | 15.6 | 13.5 |
| COC(=O)[C@H](CC(C)C)NC(=O)[C@H](Cc1ccccc1)N1CC2C=CC1C2 (stereo partly specified) |  | > 100 | > 100 |  | > 100 | > 100 | > 100 |  | > 100 | > 100 |
| O=C(Cc1nc2ccc(C(=O)c3ccccc3)cc2[nH]c1=O)C(=O)Nc1nc2ccccc2[nH]1 |  |  | > 100 |  |  | > 100 | > 100 |  | > 100 | > 100 |
| CC(=O)C1=C(C)O[C@@H]2O[C@H](COCc3ccccc3)[C@@H](OCc3ccccc3)[C@H](O)[C@@H]2S1 |  | 71 | 29.4 | 77.3 | 50.3 | 40.9 | 59.9 | 39.9 | > 100 | 38.9 |
| N#Cc1c(N)oc(-c2ccc([N+](=O)[O-])cc2)c1C#N | > 100 | 53.5 |  | 56.9 |  | 42.4 | 57.2 | 82.8 | 91.6 | > 100 |
| O=c1cc(-c2ccccc2)[nH]c2ncccc12 | > 100 | > 100 | > 100 | > 27.9 | > 100 | > 100 |  |  | > 100 | > 100 |
| O[C@@H]1C[C@H](Cl)c2c(Cl)sc(Cl)c21 | > 100 |  | > 100 | > 100 | > 100 | > 100 | > 100 | > 100 | > 100 | > 100 |
| COC1OCC(O)C(NC(=O)N(C)N=O)C1O (stereo unspecified) | > 100 | > 100 | > 100 |  | > 100 | > 100 | > 100 |  | > 100 | > 100 |
| Clc1cc(-c2ccccc2)nc(Nc2nc3ccccc3[nH]2)n1 |  | 98.3 |  | > 100 | 85.3 | 33.2 | 56 | 80.2 | > 100 |  |
| O=C(c1ccccc1)N1CCN(C(=S)NC2CCCCC2)C1=S | 48.2 | 43.3 | 30.7 |  | 96.8 | 60.8 | 36.1 | 50.3 |  | 31.1 |
